What all share (conditions): stereoisomer not certain
A short description of data set [1]: RP, Waters ACQUITY UPLC BEH C18, 100 × 2.1 mm, 1.7 µm, 0.1 mL/min, estimated dead time 2.2 min; A: water + 0.045% formic acid + 0.11% ammonium hydroxide, pH 7; B: methanol; gradient (min/%B) 0/5 5/5 25/95 25.1/100 35/100 35.1/5 45/5.
Data set [2] can be described thus: RP, Waters CORTECS T3, 100 × 2.1 mm, 2.7 µm, 0.25 mL/min, estimated dead time 0.88 min; A: water + 0.1% formic acid, pH 3; B: methanol + 0.1% formic acid, pH 3; gradient (min/%B) 0/0 1/0 6/5 30/100 35/100 35.1/0 40/0.
The nature of data set [3]: RP, Waters CORTECS T3, 100 × 2.1 mm, 2.7 µm, 0.2 mL/min, estimated dead time 1.1 min; A: water + 0.1% formic acid, pH 3; B: methanol + 0.1% formic acid, pH 3; gradient (min/%B) 0/0 1/0 6/5 30/100 35/100 35.1/0 40/0.
The nature of data set [4]: RP, Waters ACQUITY UPLC BEH C18, 100 × 2.1 mm, 1.7 µm, 0.1 mL/min, estimated dead time 2.2 min; A: water + 0.1% formic acid, pH 3; B: methanol + 0.1% formic acid, pH 3; gradient (min/%B) 0/5 5/5 25/95 25.1/100 35/100 35.1/5 45/5.
Data set [5] in a line: RP, Waters CORTECS T3, 100 × 2.1 mm, 2.7 µm, 0.2 mL/min, estimated dead time 1.1 min; A: water + 0.045% formic acid + 0.11% ammonium hydroxide, pH 7; B: methanol; gradient (min/%B) 0/5 5/5 25/95 25.1/100 35/100 35.1/5 45/5.
Data set [6] can be described thus: RP, Thermo Scientific Hypercarb, 150 × 2.1 mm, 5 µm, 0.1 mL/min, estimated dead time 3.3 min; A: water + 0.1% formic acid, pH 3; B: methanol + 0.1% formic acid, pH 3; gradient (min/%B) 0/5 5/5 20/100 35/100 35.1/5 45/5.
A short description of data set [7]: RP, Waters ACQUITY UPLC BEH C18, 100 × 2.1 mm, 1.7 µm, 0.2 mL/min, estimated dead time 1.1 min; A: water + 0.025% formic acid + 20 mM ammonium acetate + 0.055% ammonium hydroxide, pH 7; B: methanol; gradient (min/%B) 0/5 5/5 25/100 30/100 30.1/5 35/5.
Data set [8] in a line: RP, Waters CORTECS T3, 100 × 2.1 mm, 2.7 µm, 0.3 mL/min, estimated dead time 0.73 min; A: water + 0.1% formic acid, pH 3; B: methanol + 0.1% formic acid, pH 3; gradient (min/%B) 0/0 5/0 25/100 30/100 30.1/0 35/0.
Data set [9] can be described thus: RP, Waters CORTECS T3, 100 × 2.1 mm, 2.7 µm, 0.15 mL/min, estimated dead time 1.5 min; A: water + 0.1% formic acid, pH 3; B: methanol + 0.1% formic acid, pH 3; gradient (min/%B) 0/0 1/0 6/5 30/100 35/100 35.1/0 40/0.
The nature of data set [10]: RP, Waters ACQUITY UPLC BEH C18, 100 × 2.1 mm, 1.7 µm, 0.1 mL/min, estimated dead time 2.2 min; A: water + 0.1% formic acid, pH 3; B: methanol + 0.1% formic acid, pH 3; gradient (min/%B) 0/5 5/5 25/100 30/100 30.1/5 35/5.
The nature of data set [11]: RP, Waters CORTECS T3, 100 × 2.1 mm, 2.7 µm, 0.25 mL/min, estimated dead time 0.88 min; A: water + 0.1% formic acid, pH 3; B: methanol + 0.1% formic acid, pH 3; gradient (min/%B) 0/5 5/5 25/95 25.1/100 35/100 35.1/5 45/5.
A short description of data set [12]: RP, Waters ACQUITY UPLC BEH C18, 100 × 2.1 mm, 1.7 µm, 0.2 mL/min, estimated dead time 1.1 min; A: water + 0.025% formic acid + 20 mM ammonium acetate + 0.055% ammonium hydroxide, pH 7; B: methanol; gradient (min/%B) 0/5 5/5 25/100 30/100 30.1/5 35/5. The source holds these as a separate data set.
The nature of data set [13]: RP, Waters CORTECS T3, 100 × 2.1 mm, 2.7 µm, 0.3 mL/min, estimated dead time 0.73 min; A: water + 0.1% formic acid, pH 3; B: methanol + 0.1% formic acid, pH 3; gradient (min/%B) 0/0 5/0 25/100 30/100 30.1/0 35/0. This is another data set of the same source.
Data set [14] can be described thus: RP, Waters CORTECS T3, 100 × 2.1 mm, 2.7 µm, 0.2 mL/min, estimated dead time 1.1 min; A: water + 0.1% formic acid, pH 3; B: methanol + 0.1% formic acid, pH 3; gradient (min/%B) 0/0 1/0 6/5 30/100 35/100 35.1/0 40/0. This is another data set of the same source.
A short description of data set [15]: RP, Waters CORTECS T3, 100 × 2.1 mm, 2.7 µm, 0.2 mL/min, estimated dead time 1.1 min; A: water + 0.1% formic acid, pH 3; B: methanol + 0.1% formic acid, pH 3; gradient (min/%B) 0/5 5/5 25/95 25.1/100 35/100 35.1/5 45/5.
A short description of data set [16]: HILIC, Merck SeQuant ZIC-HILIC, 150 × 2.1 mm, 5 µm, 0.75 mL/min, estimated dead time 0.44 min; A: water + 0.1% acetic acid + 10 mM ammonium acetate, pH 4; B: 5% water + 95% acetonitrile + 0.1% acetic acid + 10 mM ammonium acetate, pH 4; gradient (min/%B) 0/95 5/95 20/57 25/57 30/95 40/95.
Data set [17] can be described thus: RP, Waters ACQUITY UPLC BEH C18, 100 × 2.1 mm, 1.7 µm, 0.1 mL/min, estimated dead time 2.2 min; A: water + 0.1% formic acid, pH 3; B: methanol + 0.1% formic acid, pH 3; gradient (min/%B) 0/5 5/5 25/95 25.1/100 35/100 35.1/5 45/5. This is another data set of the same source.
Data set [18] is described as follows: RP, Waters CORTECS T3, 100 × 2.1 mm, 2.7 µm, 0.3 mL/min, estimated dead time 0.73 min; A: water + 0.1% formic acid, pH 3; B: methanol + 0.1% formic acid, pH 3; gradient (min/%B) 0/0 1/0 6/5 30/100 35/100 35.1/0 40/0.
The nature of data set [19]: RP, Waters ACQUITY UPLC BEH C18, 100 × 2.1 mm, 1.7 µm, 0.1 mL/min, estimated dead time 2.2 min; A: water + 0.1% formic acid, pH 3; B: methanol + 0.1% formic acid, pH 3; gradient (min/%B) 0/5 5/5 25/95 25.1/100 35/100 35.1/5 45/5. The source holds these as a separate data set.
Data set [20] in a line: RP, Waters CORTECS T3, 100 × 2.1 mm, 2.7 µm, 0.3 mL/min, estimated dead time 0.73 min; A: water + 0.1% formic acid, pH 3; B: methanol + 0.1% formic acid, pH 3; gradient (min/%B) 0/5 5/5 25/95 25.1/100 35/100 35.1/5 45/5.
Data set [21] can be described thus: RP, Waters CORTECS T3, 100 × 2.1 mm, 2.7 µm, 0.3 mL/min, estimated dead time 0.73 min; A: water + 0.1% formic acid, pH 3; B: methanol + 0.1% formic acid, pH 3; gradient (min/%B) 0/0 1/0 6/5 30/100 35/100 35.1/0 40/0. This is another data set of the same source.
A short description of data set [22]: RP, Waters ACQUITY UPLC BEH C18, 100 × 2.1 mm, 1.7 µm, 0.2 mL/min, estimated dead time 1.1 min; A: water + 0.1% formic acid, pH 3; B: methanol + 0.1% formic acid, pH 3; gradient (min/%B) 0/5 5/5 25/100 30/100 30.1/5 35/5.
The nature of data set [23]: RP, Waters CORTECS T3, 100 × 2.1 mm, 2.7 µm, 0.1 mL/min, estimated dead time 2.2 min; A: water + 0.1% formic acid, pH 3; B: methanol + 0.1% formic acid, pH 3; gradient (min/%B) 0/5 5/5 25/95 25.1/100 35/100 35.1/5 45/5.
Data set [24] in a line: RP, Waters CORTECS T3, 100 × 2.1 mm, 2.7 µm, 0.1 mL/min, estimated dead time 2.2 min; A: water + 0.1% formic acid, pH 3; B: methanol + 0.1% formic acid, pH 3; gradient (min/%B) 0/0 1/0 6/5 30/100 35/100 35.1/0 40/0.
The nature of data set [25]: RP, Waters CORTECS T3, 100 × 2.1 mm, 2.7 µm, 0.3 mL/min, estimated dead time 0.73 min; A: water + 0.1% formic acid, pH 3; B: methanol + 0.1% formic acid, pH 3; gradient (min/%B) 0/5 5/5 25/100 30/100 30.1/5 35/5.

As for `CN1CCC[C@H]1c1cccnc1` [(S)-NICOTINE], the LC retention time in [1] is 16.1 min; in data set [2], 1.09 min; in data set [3], 1.34 min; in data set [4] it was 2.66 min; in data set [5], 11.7 min; in [6] it was 4.86 min. Also, the LC retention time in [7] was 11.2 min; in [8], 0.89 min; in data set [9], 1.78 min; in [10] it was 2.74 min.

As to `Nc1ncnc2c1ncn2C1CC(O)C(COP(=O)(O)O)O1` (configuration not stated) [DAMP], the LC retention time in data set [11] is 1.08 min; in data set [2] it was 1.09 min; in data set [3], 1.34 min; in data set [12], 1.36 min; in [13], 0.89 min; in data set [14], 1.35 min. In addition, the LC retention time in data set [15] was 2.67 min; in data set [16], 12.9 min; in [17] it was 2.72 min; in data set [9] it was 1.78 min; in data set [18], 0.92 min; in data set [19], 2.7 min. For the same compound, the LC retention time in data set [20] was 0.9 min; in data set [21], 0.92 min; in data set [22], 1.38 min; in data set [10] it was 2.74 min.

For the compound `O=C([O-])Cc1c[nH]c2ccccc12` [INDOLE-3-ACETATE], the LC retention time in data set [23] is 18.2 min; in data set [1], 11.3 min; in [2], 15.5 min; in [3] it was 16.4 min; in data set [4], 18.6 min; in data set [24] it was 14.7 min. Also, the LC retention time in data set [25] was 12.9 min; in data set [8], 13.8 min; in [9] it was 17.9 min; in [20] it was 13.1 min; in data set [21] it was 14.8 min; in [10], 18.2 min.

For the compound `C=Cc1c(C)c2cc3[nH]c(cc4nc(cc5nc(cc1[nH]2)C(C)=C5CCC(=O)O)C(CCC(=O)O)=C4C)c(C)c3C=C` [PROTOPORPHYRIN], the LC retention time is 30.1 min in data set [23]; 29.5 min in [1]; 30.1 min in [2]; 30.7 min in [3]; 30.2 min in data set [4]; 26.5 min in data set [24]. Also, the LC retention time in data set [25] was 25.1 min; in data set [5], 25.9 min; in data set [7], 25.4 min; in data set [8], 25.3 min; in [9], 31.9 min; in data set [20], 26.1 min. Moreover, the LC retention time in data set [21] was 29.7 min; in [10], 29.5 min.

In the case of `NCCc1c[nH]c2ccc(O)cc12` [SEROTONIN], the LC retention time was 13.9 min in data set [1]; 2.66 min in [4]; 10.7 min in data set [5]; 14.4 min in data set [6]; 2.74 min in data set [10].

On to `NC(Cc1cc(I)c(Oc2cc(I)c(O)c(I)c2)c(I)c1)C(=O)O` (configuration not stated) [THYROXINE], for which the LC retention time in data set [2] was 22.1 min; in data set [3], 22.8 min; in data set [4] it was 23.5 min; in data set [24], 20.3 min; in data set [25] it was 18.5 min; in data set [8] it was 18.9 min. For the same compound, the LC retention time in data set [9] was 23.9 min; in [20], 19.1 min; in data set [21], 21.6 min; in [10] it was 22.7 min.

The values above are taken from the RepoRT retention time repository (doi:10.1016/j.jchromb.2020.122105).
